Data on 35 molecules can be found in patent publication US20160318928A1, “TRICYCLIC COMPOUNDS AS ANTICANCER AGENTS” (BRISTOL-MYERS SQUIBB COMPANY, priority 2013, published 2016).

One test has as its target BRD4 (Homo sapiens, UniProt O60885). Nature of the test: Time resolved fluorescence resonance energy transfer (TR-FRET) binding assay, BRD4 bromodomain. The following applies: one of the FRET assays described. A general note: Time-resolved FRET reads energy transfer from a long-lived donor to a nearby acceptor.
Test [1] relates to JJN3R multiple myeloma cell line. Nature of the test: Human tumor xenograft model in mice, JJN3R. Format: in vivo. The note with it: Mus musculus, JJN-3R, po, QDx7, read-out: % TGI. An excerpt: Human Tumor Xenograft Models in Mice
All rodents were obtained from Jackson Laboratory. (Bar Harbor, Me.), and maintained in an ammonia-free environment in a defined and pathogen-free colony. All mice were quarantined approximately 1 week prior to their use for tumor propagation and drug efficacy testing. Mice were fed food and water ad libitum. The animal care program of Bristol-Myers Squibb Pharmaceutical Research Institute is fully accredited by the American Association for Accreditation of Laboratory Animal Care (AAALAC). All experiments were performed in accordance with Bristol-Myers Squibb (BMS) animal test methods and guidelines.
Tumor xenografts were grown and maintained subcutaneously (SC) in NSG (NOD scid IL2 receptor gamma chain knockout) mice (Jackson Lab). Tumors were propagated as subcutaneous transplants using tumor fragments obtained from donor mice.
Preclinical Chemotherapy Trials
The required numbers of animals needed to detect a meaningful response were pooled at the start of the experiment and each was given bilateral subcutaneous implants of two tumor fragments (˜20 mg) with a 13-gauge trocar. Tumors were allowed to grow to the pre-determined size window (tumors outside the range were excluded) and animals were evenly distributed to various treatment and control groups. There were typically 6-8 mice per treatment and control groups, consisting of 10-12 tumors. Treatment of each animal was based on individual body weight. Treated animals were checked daily for treatment related toxicity/mortality. Each group of animals was weighed before the initiation of treatment (WO and then again following the last treatment dose (Wt2). The difference in body weight (Wt2-Wt1) provides a measure of treatment-related toxicity.
Tumor response was determined by measurement of tumors with a caliper twice a week, until the tumors reached a predetermined “target” size of 0.5 gm or 1 gm depending on the tumor type. Tumor weights (mg) were estimated from the formula:
Tumor weight=(length×width^2)÷2
Tumor response criteria are expressed in terms of tumor growth inhibition (% TGI). Tumor growth delay is defined as the difference in time (days) required for the treated tumors (T) to reach a predetermined target size compared to those of the control group (C). For this purpose, the tumor weight of a group is expressed as medium tumor weight (MTW).
Tumor growth inhibition is calculated as follows:
where, Ct=Median control tumor size at end of treatment C0=Median control tumor size at treatment initiation Tt=Median tumor size of treated group at end of treatment T0=Median tumor size of treated group at treatment initiation
Tumor response was also expressed in terms of tumor growth delay and expressed as log cell kill (LCK value), defined as the difference in time (days) required for the treated tumors (T) to reach a predetermined target size compared to those of the control group (C).
Whenever possible, antitumor activity was determined at a range of dose levels up to the maximum tolerated dose (MTD) which is defined as the dose level immediately […] which excessive toxicity (i.e. more than one death) occurred. When death occurred, the day of death was recorded. Treated mice dying prior to having their tumors reach target size were considered to have died from drug toxicity. No control mice died bearing tumors less than target size. Treatment groups with more than one death caused by drug toxicity were considered to have had excessively toxic treatments and their data were not included in the evaluation of a compound's antitumor efficacy.
For administration of BET inhibitors to rodents, compounds were dissolved in […]/10% TPGS/10% Ethanol. BET inhibitors were typically administered orally on a schedule of QDx7 or QDx10 (5 day-on-2 day-off), although other schedules had also been evaluated and shown to be efficacious

Molecules are shown by their SMILES.

By IC50 is commonly meant the midpoint of a concentration-inhibition curve. A high value points to lower potency. Take `[2H]C([2H])([2H])c1nnn(C)c1-c1cnc2c3ccc(C(C)(C)O)c(F)c3n([C@H](c3ccccc3F)C3CCCOC3)c2c1` (stereo partly shown) [Example 272]: at BRD4, the concentration for half-maximal inhibition (IC50) was < 5 nM.
As for `Cc1nnn(C)c1-c1cnc2c3ccc(C(C)(C)O)c(F)c3n(C(CCC(F)(F)F)CCC(F)(F)F)c2c1` [Example 74], the IC50 at BRD4 is < 25 nM.
Regarding `Cc1nnn(C)c1-c1cnc2c3cc(C(=O)N4CC(F)(F)C4)ccc3n([C@H](c3ccccc3)C3CCOCC3)c2c1` [Example 428, 5-[8-(3,3-Difluoroazetidine-1-carbonyl)-5-[(S)-oxan-4-yl(phenyl)methyl]-5H-pyrido[3,2-b]indol-3-yl]-1,4-dimethyl-1H-1,2,3-triazole], the IC50 on BRD4 is < 5 nM.
Turning to `[2H]C([2H])([2H])c1nnn(C)c1-c1cnc2c3cc(F)c(C(C)(C)O)cc3n([C@H](c3ccccc3)C3CCOCC3)c2c1` [Example 279, 2-{8-Fluoro-3-[4-(^2H3)methyl-1-methyl-1H-1,2,3-triazol-5-yl]-5-[(S)-oxan-4-yl(phenyl)methyl]-5H-pyrido[3,2-b]indol-7-yl}propan-2-ol], in test [1], the inhibition in vivo at 1 mg/kg was 88% and the inhibition in vivo at 4 mg/kg stood at 110%.
With `Cc1nnn(C)c1-c1cnc2c3ccc(C(C)(C)O)cc3n(C(CCC(F)(F)F)CCC(F)(F)F)c2c1` [Example 56], the IC50 on BRD4 is < 5 nM.
On to `CCCC(CCC)n1c2cc(C(C)(C)O)ccc2c2ncc(-c3c(C)noc3C)cc21` [Example 8], for which the IC50 at BRD4 was < 5 nM.
As to `[2H]C([2H])([2H])c1nnn(C)c1-c1cnc2c3c(OC)cc(C(C)(C)O)cc3n(C(c3ccc(F)cc3)C3CCOCC3)c2c1` (stereo not shown) [Example 275], on BRD4, the IC50 was < 5 nM.
On to `[2H]C([2H])([2H])c1nnn(C)c1-c1cnc2c3c(NS(=O)(=O)CC)ccc(S(C)(=O)=O)c3n(C(c3ccccc3)C3CCOCC3)c2c1` (stereo not shown) [Example 223], for which the IC50 on BRD4 was < 25 nM.
The same measure, in the same setting: for `COCC(C1CCOCC1)n1c2cc(C(C)(C)O)ccc2c2ncc(-c3c(C)nnn3C)cc21` (single isomer, unassigned) [Example 397] the value was < 25 nM.
With `[2H]C([2H])([2H])c1nnn(C)c1-c1cnc2c3ccc([C@](C)(O)C4CC4)c(F)c3n([C@H](c3ccccc3)C3CCOCC3)c2c1` [Example 434, (1R)-1-cyclopropyl-1-{6-fluoro-3-[4-(^2H3)methyl-1-methyl-1H-1,2,3-triazol-5-yl]-5-[(5)-oxan-4-yl(phenyl)methyl]-5H-pyrido[3,2-b]indol-7-yl}ethan-1-ol], the inhibition in vivo at 1 mg/kg in test [1] stood at 82%.
`CCCC(CCC)n1c2cc(-c3c(C)noc3C)cnc2c2ccc(C(C)(C)O)c(F)c21` [Example 82]: the IC50 on BRD4 is < 25 nM.
Consider `Cc1nnn(C)c1-c1cnc2c3cc(C(=O)N4CC(F)C4)ccc3n([C@H](c3ccccc3)C3CCOCC3)c2c1` [Example 430, 5-[8-(3-Fluoroazetidine-1-carbonyl)-5-[(S)-oxan-4-yl(phenyl)methyl]-5H-pyrido[3,2-b]indol-3-yl]-1,4-dimethyl-1H-1,2,3-triazole], for which, on BRD4, the concentration for half-maximal inhibition (IC50) is < 5 nM.
For the molecule `CCCC(CCC)n1c2cc(-c3c(C)nnn3C)cnc2c2ccc(C(C)(C)O)c(F)c21` [Example 75], the half-maximal inhibitory concentration (IC50) at BRD4 was < 5 nM.
As to `CCS(=O)(=O)Nc1ccc(S(C)(=O)=O)c2c1c1ncc(-c3c(C)nnn3C)cc1n2[C@H](c1ccccc1)C1CCOCC1` [Example 217], the IC50 on BRD4 is < 5 nM.
Turning to `Cc1nnn(C)c1-c1cnc2c3c(NS(=O)(=O)CC4CC4)ccc(S(C)(=O)=O)c3n([C@H](c3ccccc3)C3CCOCC3)c2c1` [Example 219], the IC50 at BRD4 is < 5 nM.
Consider `Cc1nnn(C)c1-c1cnc2c3ccc([C@](C)(O)C4CC4)c(F)c3n([C@H](c3ccccc3)C3CCOCC3)c2c1` (single isomer, unassigned) [Example 432], for which, in test [1], the inhibition in vivo at 1 mg/kg was determined as 51% and the inhibition in vivo at 4 mg/kg worked out at 102%.
Turning to `Cc1noc(C)c1-c1cnc2c3ccc(C(C)(C)O)cc3n(C(c3ccccc3)c3ccccc3)c2c1` [Example 3], on BRD4, the IC50 was < 5 nM.
As to `Cc1nnn(C)c1-c1cnc2c3ccc(C(C)(C)O)cc3n([C@H](c3ccc(F)cc3)C3CCOCC3)c2c1` [Example 59], on BRD4, the IC50 was < 5 nM.
Regarding `[2H]C([2H])([2H])c1nnn(C)c1-c1cnc2c3ccc([C@@](C)(O)C4CC4)c(F)c3n([C@H](c3ccccc3)C3CCOCC3)c2c1` [Example 433, (1 S)-1-cyclopropyl-1-{6-fluoro-3-[4-(^2H3)methyl-1-methyl-1H-1,2,3-triazol-5-yl]-5-[(S)-oxan-4-yl(phenyl)methyl]-5H-pyrido[3,2-b]indol-7-yl}ethan-1-ol], the inhibition in vivo at 1 mg/kg in test [1] amounted to 54%.
Regarding `[2H]C([2H])([2H])c1nnn(C)c1-c1cnc2c3ccc(S(C)(=O)=O)cc3n(C(c3ccc(F)cc3)C3CCOCC3)c2c1` (stereo not shown) [Example 265], the IC50 on BRD4 is < 5 nM.
The same measure, in the same setting: for `[2H]C([2H])([2H])c1nnn(C)c1-c1cnc2c3cc(F)c(C(C)(C)O)cc3n(C(c3ncccc3F)C3CCOCC3)c2c1` (single isomer, unassigned) [Example 459] the value was < 5 nM.
As for `Cc1nnn(C)c1-c1cnc2c3ccc(C(C)(C)O)cc3n([C@@H](c3ccc(F)cc3)C3CCOCC3)c2c1` [Example 73], on BRD4, the IC50 is < 5 nM.
Take `COc1cccnc1C(C1CCOCC1)n1c2cc(C(C)(C)O)ccc2c2ncc(-c3c(C)nnn3C)cc21` (stereo not shown) [Example 291]: at BRD4, the IC50 is < 5 nM.
As for `CCCC(CCC)n1c2cc(C(C)(C)O)ccc2c2ncc(-c3c(C)nnn3C)cc21` [Example 61], the half-maximal inhibitory concentration (IC50) at BRD4 was < 5 nM.
The same measure, in the same setting: for `COCC(C1CCOCC1)n1c2cc(C(C)(C)O)ccc2c2ncc(-c3c(C)nnn3C)cc21` (single isomer, unassigned) [Example 396] the value was < 5 nM; for `Cc1nnn(C)c1-c1cnc2c3c(NS(=O)(=O)C4CC4)ccc(S(C)(=O)=O)c3n(C(c3ccccc3)C3CCOCC3)c2c1` (stereo not shown) [Example 218], < 5 nM; for `Cc1nnn(C)c1-c1cnc2c3ccc(S(C)(=N)=O)cc3n([C@H](c3ccccc3)C3CCOCC3)c2c1` (single isomer, unassigned) [Example 371], < 5 nM.
Still for that read-out and setting: for `[2H]C([2H])([2H])c1nnn(C)c1-c1cnc2c3c(S(C)(=O)=O)cccc3n(C(c3ccc(F)cc3)C3CCOCC3)c2c1` (stereo not shown) [Example 270] the value was < 5 nM.
For the molecule `Cc1noc(C)c1-c1cnc2c3ccc(C(C)(C)O)c(F)c3n(C(CCC(F)(F)F)CCC(F)(F)F)c2c1` [Example 83], the IC50 at BRD4 was < 25 nM.
On the same count and under the same terms, for `Cc1nnn(C)c1-c1cnc2c3ccc(CN(C)C)cc3n([C@H](c3ccccc3)C3CCOCC3)c2c1` [Example 406, {[3-(Dimethyl-1H-1,2,3-triazol-5-yl)-5-[(S)-oxan-4-yl(phenyl)methyl]-5H-pyrido[3,2-b]indol-7-yl]methyl}dimethylamine] the value was < 5 nM; for `Cc1nnn(C)c1-c1cnc2c3ccc(C(C)(C)O)cc3n([C@@H](c3ccc(F)cc3)C3CCOCC3)c2c1` [Example 60], < 5 nM; for `Cc1nnn(C)c1-c1cnc2c3cc(C(=O)N4CC(O)C4)ccc3n([C@H](c3ccccc3)C3CCOCC3)c2c1` [Example 429, 1-[3-(Dimethyl-1H-1,2,3-triazol-5-yl)-5-[(S)-oxan-4-yl(phenyl)methyl]-5H-pyrido[3,2-b]indole-8-cabonyl]azetidine-3-ol], < 5 nM.
Consider `Cc1nnn(C)c1-c1cnc2c3ccc(S(C)(=N)=O)cc3n([C@H](c3ccccc3)C3CCOCC3)c2c1` (single isomer, unassigned) [Example 372], for which the IC50 on BRD4 is < 5 nM.
The same measure, in the same setting: for `Cc1nnn(C)c1-c1cnc2c3cc(F)c(C(C)(C)O)c(F)c3n([C@H](c3ccccc3)C3CCOCC3)c2c1` [Example 451, 2-[3-(Dimethyl-1H-1,2,3-triazol-5-yl)-6,8-difluoro-5-[(S)-oxan-4-yl(phenyl)methyl]-5H-pyrido[3,2-b]indol-7-yl]propan-2-ol] the value was < 5 nM; for `[2H]C([2H])([2H])c1nnn(C)c1-c1cnc2c3ccc(C(C)(C)O)cc3n(C(c3ccccc3F)C3CCOCC3)c2c1` (stereo not shown) [Example 266], < 5 nM.
